The text below walks through data of ChEMBL document CHEMBL2016499, “Monoenomycin: A Simplified Trienomycin A Analogue that Manifests Anticancer Activity” (ACS Med Chem Lett, 2011).

One may read the IC50 as the point on the concentration scale where inhibition reaches its midpoint. The low end stands for greater potency in that assay, the high end for weaker potency in that assay.

Some results are limits rather than exact numbers.

One test has as its system MCF7. The test can be described thus: Cytotoxicity against human MCF7 cells at 72 hrs by MTS assay. Format: functional, cell-based. Particulars: MCF7, 72 h.
The subject of the next test is HeLa. Put plainly: Cytotoxicity against human HeLa cells at 72 hrs by MTS assay. Format: functional, cell-based.

For `COc1cc2cc(c1)NC(=O)CCCCCCC=CC[C@H](OC(=O)[C@@H](Cc1ccccc1)NC(=O)C1CCCCC1)CC/C(C)=C/CC2` (mixture of isomers), the IC50 in the test with MCF7 worked out at 5100 nM; with HeLa, 4600 nM.

In the case of `COc1cc2cc(c1)NC(=O)CCCCCCC=CC[C@H](OC(=O)[C@H](C)NC(=O)C1CCCCC1)CC/C(C)=C/CC2` (mixture of isomers), the values for the IC50 with MCF7 and with HeLa were 1900 nM and 1700 nM, respectively.

As for `COc1cc2cc(c1)NC(=O)CCCCCCC=CC[C@H](OC(=O)[C@@H](C)NC(C)=O)CC/C(C)=C/CC2` (mixture of isomers), the IC50 in the test with MCF7 was 1700 nM; in the test on HeLa, 2500 nM.

Regarding `COc1cc2cc(c1)NC(=O)CCCCCCC=CC[C@H](OC(=O)[C@H](NC(=O)C1CCCCC1)C(C)C)CC/C(C)=C/CC2` (mixture of isomers), the IC50 in the test on MCF7 turned out to be 1000 nM; with HeLa, 9100 nM.

Turning to `COC1=C2C[C@@H](C)C[C@H](OC)[C@H](O)[C@@H](C)/C=C(\C)[C@H](OC(N)=O)[C@@H](OC)/C=C\C=C(/C)C(=O)NC(=CC1=O)C2=O` [GELDANAMYCIN], the IC50 in the test with MCF7 is 53 nM; in the test with HeLa it was above 5000 nM.

Take `COc1cc2cc(c1)NC(=O)CCCCCCC=CC[C@H](OC(=O)[C@@H](C)NC(=O)C1CCCCC1)CC/C(C)=C/CC2` (mixture of isomers): the IC50 in the test on MCF7 was 530 nM; in the test on HeLa, 470 nM.

Turning to `COc1cc2cc(c1)NC(=O)CCCCCCC=CC[C@H](OC(=O)CNC(=O)C1CCCCC1)CC/C(C)=C/CC2` (mixture of isomers), the 50% inhibitory concentration (IC50) with MCF7 was 12000 nM; in the test on HeLa, 13000 nM.

For `COc1cc2cc(c1)NC(=O)CCCCCCC=CC[C@H](OC(=O)[C@@H](C)NC(=O)C1CCCCC1)CC/C(C)=C\CC2` (mixture of isomers), the IC50 in the test on MCF7 and in the test on HeLa was above 100000 nM each time.

Regarding `COc1cc2cc(c1)NC(=O)CCCCCCC=CC[C@H](OC(=O)[C@@H](C)NC(=O)C1CCCC1)CC/C(C)=C/CC2` (mixture of isomers), the figures for the IC50 in the test on MCF7 and in the test with HeLa were 720 nM and 1600 nM, respectively.

For `COc1cc2cc(c1)NC(=O)CCCCCCC=CC[C@H](OC(=O)[C@@H](CC(C)C)NC(=O)C1CCCCC1)CC/C(C)=C/CC2` (mixture of isomers), the half-maximal inhibitory concentration (IC50) in the test with MCF7 and in the test on HeLa was above 100000 nM throughout.

`CO[C@H]1/C=C/C=C/C=C/C[C@H](OC(=O)[C@@H](C)NC(=O)C2CCCCC2)[C@H](C)[C@@H](O)/C(C)=C\CCc2cc(O)cc(c2)NC(=O)C1` [TRIENOMYCIN A] had an IC50 in the test on HeLa of 128 nM.
